This note sets out measurements from patent US20260207580A1, “NITROXOLINE FOR USE IN THE TREATMENT OR PREVENTION OF A MALIGNANT PERIPHERAL NERVE SHEATH TUMOUR” (HEALX LTD, priority 2022, published 2026).

What all share (type): cell-based
The subject of experiment [1] is Nf1^−/− DNSCs. The experiment can be described thus: Cellular apoptosis, Caspase-Glo 3/7 kit (caspase 3/7 activity). The settings on record: nf1−/− cells; 48 hrs incubation; serially diluted from 105 μM. As for the experimental part:
(§1) Nf1-Ink4a/Arf mutant DNSCs have increased cell cycle activity and proliferation in vitro, consistent with the in vivo phenotypes. The present study utilizes Nf1^−/− and Nf1^−/−; Ink4a/Arf^+/− mutant DNSCs obtained by transient infection of Nf1^flox/flox and Nf1^flox/flox; Ink4a/Arf^flox/+ DNSCs with an adenovirus carrying Cre recombinase. Selectivity of nitroxilone was compared between Nf1^−/− and Nf1^−/−; Ink4a/Arf^+/− DNSCs.
(§2) Nf1^−/− and Nf1^−/−; Ink4a/Arf^+/− DNSCs described above were treated with serially diluted nitroxoline starting from 105 μM and incubated for 48 hrs. After the incubation period, proliferation, viability and apoptosis assays were performed as described below: • DNSC proliferation and viability was assessed using the CellTiter-Glo Assay (Promega) which measures […]. […] After 10 minutes, the plates were read using a 96-well microplate luminometer. • To assess cellular apoptosis, the Caspase-Glo 3/7 kit (Promega) was utilized according to the manufacturer's instructions. […] After 10 minutes, plates were read using a 96 well luminometer to measure caspase 3/7 activity.

In experiment [2] the test system is Nf1^−/−; Ink4a/Arf^+/− DNSCs. The description is as above. The settings on record: cells Nf1−/−, 48 hrs incubation, serially diluted from 105 μM. As for the experimental part: as §1, §2
Experiment [3] has as its system Nf1^−/− DNSCs. The experiment can be described thus: DNSC proliferation and viability, CellTiter-Glo Assay. To be noted: cells Nf1−/−; 48 hrs incubation; serially diluted from 105 μM. As for the experimental part: as §1, §2
Experiment [4] concerns Nf1^−/−; Ink4a/Arf^+/− DNSCs. The experiment is described as above. To be noted: cells Nf1−/−, 48 hrs incubation, serially diluted from 105 μM. As for the experimental part:
as §1, §2

Molecules are shown by their SMILES.

Take `O=[N+]([O-])c1ccc(O)c2ncccc12` [Nitroxoline, 5-nitroquinolin-8-ol]: the figures for the “concentrations at which the induction of apoptosis was evident” value (in the experiment on Nf1^−/− DNSCs [1]; in experiment [2]) were 30 to 100 µM and “greater than 10 μM”, respectively. The “concentrations at which the antiproliferative effect was observed” value in the experiment on Nf1^−/− DNSCs [3] is recorded as “greater than 10 μM”; in experiment [4], “greater than 3 μM”.
